Experimental data reported in patent US4681969A, “Process for the preparation of an enantiomeric pair of isomers of cyfluthrin” (Imperial Chemical Industries PLC, priority 1984, dated 1987).
≈ marks a conversion by molar mass, not a printed value. Read-outs that look alike come from different tables or passages of the source.

Assays:
[1] = relative insecticidal efficacy (general statement); format: in vivo; details: Starting Material vs previously described mixture of cis and trans isomers; Racemate vs Starting Material
[2] = test system: Heliothis virescens (tobacco budworm); assay: LC50 against larval tobacco budworm; format: in vivo; details: for LC50: read-out: LC50 (concentration required to kill 50% of a population)
Source text: The isomers were obtained by the h.p.l.c. technique shown in the next Example.

| Structure (SMILES) | relative insecticidal efficacy [1] | efficacy relative to cyfluthrin ([2]; larval Heliothis virescens, from LC50 values) | LC50 ([2]; larval Heliothis virescens) [µg/mL] | LC50 ([2]; Heliothis virescens) [µg/mL] |
| --- | --- | --- | --- | --- |
| CC1(C)[C@H](C(=O)OC(C#N)c2ccc(F)c(Oc3ccccc3)c2)[C@@H]1C=C(Cl)Cl (mixture of isomers) [The Starting Material, (RS) -α-cyano-4-fluoro-3-phenoxybenzyl (1RS,cis)-3-(2,2-dichlorovinyl)-2,2-dimethylcyclopropane carboxylate] | potent insecticide of greater relative efficacy than the previously described mixture of cis and trans isomers | – | – | – |
| CC1(C)[C@H](C(=O)O[C@H](C#N)c2ccc(F)c(Oc3ccccc3)c2)[C@@H]1C=C(Cl)Cl (relative stereo) [1R,cis-S/1S,cis-R, (S)-α-cyano-4-fluoro-3-phenoxybenzyl (1R,cis)-3-(2,2-dichlorovinyl)-2,2-dimethylcyclopropanecarboxylate and its enantiomer, (R)-α-cyano-4-fluoro-3-phenoxybenzyl (1S,cis)-3-(2,2-dichlorovinyl)-2,2-dimethylcyclopropane carboxylate] | even more effective insecticidal product | about four times more efficacious than cyfluthrin | 1.8 (≈ 4.14 µM) | – |
| CC1(C)C(C=C(Cl)Cl)C1C(=O)OC(C#N)c1ccc(F)c(Oc2ccccc2)c1 (racemic) [Cyfluthrin, (R,S)-α-cyano-4-fluoro-3-phenoxybenzyl (1R,S-cis)/(1R,S-trans)-3-(2,2-dichlorovinyl)-2,2-dimethylcyclopropane carboxylate] | – | – | 7.1 (≈ 16.3 µM) | – |
| CC1(C)[C@H](C(=O)O[C@@H](C#N)c2ccc(F)c(Oc3ccccc3)c2)[C@@H]1C=C(Cl)Cl (relative stereo) [1S,cis-S/1R,cis-R, (R)-α-cyano-4-fluoro-3-phenoxybenzyl (1R,cis)-3-(2,2-dichlorovinyl)-2,2-dimethylcyclopropane carboxylate and (S)-α-cyano-4-fluoro-3-phenoxybenzyl (1S,cis)-3-(2,2-dichlorovinyl)-2,2-dimethylcyclopropane carboxylate] | – | – | – | 23.4 (≈ 53.9 µM) |
| CC1(C)[C@H](C=C(Cl)Cl)[C@H]1C(=O)O[C@H](C#N)c1ccc(F)c(Oc2ccccc2)c1 (relative stereo) [1R,trans-S/1S,trans-R] | – | – | 3.6 (≈ 8.29 µM) | – |
